# Data from patent publication US10821069B2, “Aqueous extract of truffle and cosmetic composition thereof” (ISP INVESTMENTS LLC, priority 2014, dated 2020).
# System: Normal human keratinocytes
# Assay: Mitochondrial ROS production after rotenone-induced production of ROS (MITOSOX staining)
# Format: cell-based
# Settings: 1 μM Rotenone for 4 hours, no extract
# Description: The purpose of this study is to determine the influence of the Truffle extract according to example 2 regarding the mitochondrial Reactive oxygen Species (ROS) production. Mitochondrial ROS were induced by rotenone, an electron transport chain complex inhibitor.
# Method: Normal human keratinocytes extracted from a […] […] abdominal skin were seeded in 8 well culture PERMANOX® plastic slides (Thermo Scientific, Waltham, Mass., USA). Cells were pre-treated with two applications per day of the Truffle extract of example 2 (at 0.01% and 0.05%) for 48 h in KSFM medium (Gibco, Auckland, NZ) supplemented with 50 μg·ml-1 bovine pituitary extract (Gibco), 5 ng·ml-1 human recombinant EGF (Gibco) and 0.1 mg·ml-1 PRIMOCIN™ (Invivogen, San Diego, Calif., USA). Then cells were submitted to 1 μM Rotenone application for 4 hours. Immediately after the stress, culture medium was replaced with fresh KSFM for 1 hour. At the end of incubation, a 5 μM MITOSOX® (Life Technologies, Carlsbad, Calif., USA) solution was incubated further for 20 min at 37° C. in 5% CO2 atmosphere. […] Digital images were acquired with an inverted Zeiss Axiovert 200M microscope (Zeiss, Oberkochen, Germany) with a 20× objective. […] Statistical significance of the data was assessed by paired Student's t-test (n=3, p<0.05 was considered significant; p<0.01 as very significant and p<0.005 as highly significant).
structure (smiles),measurement,value
C=C(C)[C@H]1Cc2c(ccc3c2O[C@@H]2COc4cc(OC)c(OC)cc4[C@@H]2C3=O)O1 [rotenone],increase in ROS production in keratinocytes compared to untreated control,45%
